In patent publication US20190350944A1, “NEUROACTIVE STEROID SOLUTIONS AND THEIR METHODS OF USE” (Sage Therapeutics, Inc., priority 2015, published 2019) one finds major degradation pathway data, which are given here for one molecule.

This data set can be described thus: Degradation pathway for allopregnanolone in SBECD formulations. The class given is physicochemical. The source says: FIG. 1 summarizes the two major degradation pathways found for allopregnanolone in SBECD formulations.

SMILES strings stand for the structures.

With `CC(=O)[C@H]1CC[C@H]2[C@@H]3CC[C@H]4C[C@H](O)CC[C@]4(C)[C@H]3CC[C@]12C` [allopregnanolone, 3 alpha-hydroxy-5 alpha-pregnan-20-one], the major degradation pathway result by setting is: (pH of ~6 or less) “epimerization of allopregnanolone to compound 1269”; (pH of ~6 or more) “oxidation of allopregnanolone to compound 136”.
